Experimental data reported in patent publication US7820692B2, “Tetrahydro isoquinoline derivatives, preparation methods and medicinal uses thereof” (China Pharmaceutical University, priority 2006, dated 2010).
“Also recorded” adds a separate entry of the source. Marks after values point to notes of the source that are not given here.

Experiments:
[1] = biological target: κ-opioid receptor (Homo sapiens, UniProt P41145); test: Radioligand receptor binding assay, competition with [3H]diprenorphine, κ-receptor; settings: for dpm: competition binding with κ-receptor, [3H]diprenorphine 0.5 nM; for dpm / inhibition rate % / inhibition at 10 µM: compound at 1 × 10^−5 M; for Ki: Ki=IC50/(1+[L]/Kd); for IC50: competition binding, κ-opioid receptor; for inhibition at 10 µM: read-out: inhibition rate %
Experimental: (§1) The experiment test tubes are divided into total binding tubes and non-specific binding tubes, and several groups of sample tubes added with competitive ligand in different concentrations are provided. The total binding tube is added with expressed membrane receptor protein equivalent to 20 μg and [^3H] diprenorphine (0.5 nM) (1.44 Pbq/mol broad spectrum opioid antagonist, Amersham), the corresponding non-specific binding tubes are further added with 1 μM Naloxone (broad spectrum opioid antagonist, Sigma), the sample tubes are added with different concentrations compounds which are to be screened, the final volume is regulated to 100 μl with 50 mM Tris(Amresco)-HCl (pH 7.4). Incubation is performed at 30° C. for 30 min, and the tubes are placed into ice water to stop reaction. Negative pressure filter is performed in Millipore sample collector via GF/(Whatman) glass fiber filter paper. Ice cold 50 mM Tris-HCl (pH 7.4) is used to wash the filter paper for three times, each for 4 ml; Dry the filter paper and place it in 0.5 ml Eppendorff tube, and add 0.5 ml of lipophilic scintillator liquid (Reagent No. 1 Factory Of Shanghai Chemical Reagent Co. Ltd). Beckman LS 6500 multifunctional liquid scintillation counter is adopted for measuring radiation intensity, calculating inhibition rate is calculated, each concentration has three duplicated tubes, and each tube is independently tested for 3-4 times.
(§2) IC50 value is calculated by software Prism 4.0.
(§3) Ki=IC50/(1+[L]/Kd), ([L] is the concentration of added marked ligand, and Kd is equilibrium dissociation constant of radioligand).

[2] = system: Kuming mice; test: Mice hot plate method analgesic test; assay type: in vivo; settings: for Analgesic experiment result, Mice hot plate method: subcutaneous injection, hot plate 55° C., value with range in brackets
Experimental: (§4) Analgesic efficacy of the subject compound is determined by using model derived from mice hot plate method and mice writhing method (Methodology of Pharmacological Experiment, edition II, Xu Shuyun, People Medical Publishing Company, 1991).
Experiment Animal: Kuming Mice (Female, 18-22 g)
(§5) • (1) Selection of normal mice: the test room temperature is controlled at about 22° C., temperature of the hot plate of an pain threshold dector is regulated to 55° C., the duration from the moment the mice is put on the hot plate to the moment the mice start to lick the hind paw is recorded as pain threshold value, the test is repeated twice at interval of 20 min, and the mice with average pain threshold value no more than 30 sec is qualified mice. • (2) Experimental mice: the qualified mice are randomly divided into groups each having 10 mice, and subjected to subcutaneous injection. • Each group is tested for mice pain response time once every 5, 15, 30, 50, and 60 minute after administration, and the medicine is believed to be effective which response time beyond 1 min. • Mice Writhing Assay • I-6 is administered via subcutaneous injection, then 0.6% acetic acid solution (10 ml/kg) is administered after 30 min, and the number of the mice writhing within 15 min is recorded. 3.

[3] = system: Kuming mice; test: Mice writhing assay (acetic acid) analgesic test; assay type: in vivo; settings: subcutaneous injection, 0.6% acetic acid after 30 min, writhing within 15 min
Experimental: as §4, §5

[4] = biological target: μ-opioid receptor (Homo sapiens, UniProt P35372); test: Radioligand receptor binding assay, competition with [3H]diprenorphine, μ-receptor; settings: for inhibition at 1 µM: read-out: inhibition rate of medicine at 1 × 10^−6 M (μ); for Ki: Ki=IC50/(1+[L]/Kd); for IC50: competition binding, μ-opioid receptor; for receptor selectivity μKi/κKi: ratio of μ Ki to κ Ki
Experimental: as §1, §2, §3

[5] = system: Kuming mice; test: Analgesic tolerance test (hot plate, 9 days administration); assay type: in vivo; settings: morphine 7 mg/kg subcutaneous injection
Experimental: Kuming mice (18-20 g, male) are selected for test, and divided into physiological saline group, morphine group, and I-6 group.
physiological saline group: subcutaneous administration, 0.2 mL for each mice.
Morphine group: Day 1-3, subcutaneous injection, 7 mg/kg • Day 4-7, subcutaneous injection, 10 mg/kg • Day 8-9, subcutaneous injection, 15 mg/kg I-6 group: Day 1-9, subcutaneous injection, 25 μg/kg
Hot plate method in mice is adopted as model, administration lasts for 9 days, analgesic effects before and after administration are determined every day, and if analgesic effect is attenuated after continuous administration of 3 days, the drug concentration will be increased, and if analgesic effect don't change, the drug concentration will not be changed.

[6] = 1 × 10^−6 M, printed in the IC50 (M) μ column

SMILES | dpm [1] [dpm] | inhibition rate % [1] [%] | Ki [1] [nM] | IC50 [1] [nM] | inhibition at 10 µM [1] [%] | further results
COc1cc2c(cc1OC)C(CN1CCCC1)N(C(=O)C1CC(=O)c3ccc(Cl)cc31)CC2 (centres unmarked) [I-30, 6,7-dimethoxy-1-(pyrrolidine-1-methyl)-2-(6-chloro-2,3-dihydro-inden-3-keto-1-carbonyl)-1,2,3,4-tetrahydroisoquinoline] | 2269.71 | 40.6 | – | – | – | –
COc1ccc2c(c1)C(C(=O)N1CCc3ccc(OC)cc3C1CN1CCCC1)CC2=O (centres unmarked) [I-19, 7-methoxy-1-(pyrrolidine-1-methyl)-2-(6-methoxy-2,3-dihydro-inden-3-keto-1-carbonyl)-1,2,3,4-tetrahydroisoquinoline] | 799.91 | 82.9 | – | – | – | –
COc1cc2c(cc1OC)C(CN1CCCC1)N(C(=O)C1CC(=O)c3cc(OC)c(OC)cc31)CC2 (centres unmarked) [I-27, 6,7-dimethoxy-1-(pyrrolidine-1-methyl)-2-(5,6-dimethoxy-2,3-dihydro-inden-3-keto-1-carbonyl)-1,2,3,4-tetrahydroisoquinoline] | 5257.44 | 0 | – | – | – | –
O=C1CC(C(=O)N2CCc3ccccc3C2CN2CCCC2)c2ccccc21 (centres unmarked) [I-1, 1-(pyrrolidine-1-methyl)-2-(2,3-dihydro-inden-3-keto-1-carbonyl)-1,2,3,4-tetrahydroisoquinoline] | 212.91 | – | 0.438 | 1.53 | 100 | analgesic efficacy compared with morphine ([2]; mice hot plate method and mice writhing method): powerful analgesic efficacy; Analgesic experiment result, Mice hot plate method [2]: 44.147(25.134-77.545) ug/kg; Analgesic experiment result, Mice writhing assay [3]: 26.303(16.807-41.165) ug/kg; inhibition at 1 µM [4, 6]: 18.7%
CN1CC[C@]23c4c5ccc(O)c4O[C@H]2[C@@H](O)C=C[C@H]3[C@H]1C5 [Morphine, morphine] | – | – | – | – | – | analgesic effect on continuous administration ([5]; Day 3): no significant analgesic effect; also recorded: tolerance and efficacy of zero; analgesic effect on continuous administration ([5]; from Day 2): attenuated analgesic effect from Day 2; Analgesic experiment result, Mice hot plate method [2]: 6.949(5.682-8.500) mg/kg; Analgesic experiment result, Mice writhing assay [3]: 0.840(0.558-1.265) mg/kg
COc1ccc2c(c1)C(C(=O)N1CCc3ccccc3C1CN1CCCC1)CC2=O (centres unmarked) [I-13, 1-(pyrrolidine-1-methyl)-2-(6-methoxy-2,3-dihydro-inden-3-keto-1-carbonyl)-1,2,3,4-tetrahydroisoquinoline] | 211.54 | – | 0.909 | 3.18 | 100 | Ki [4]: 133 nM; IC50 [4]: 399 nM; receptor selectivity μKi/κKi [4]: 146
COc1ccc2c(c1)C(C(=O)N1CCc3cc(OC)c(OC)cc3C1CN1CCCC1)CC2=O (centres unmarked) [I-31, 6,7-dimethoxy-1-(pyrrolidine-1-methyl)-2-(6-methoxy-2,3-dihydro-inden-3-keto-1-carbonyl)-1,2,3,4-tetrahydroisoquinoline] | 3271.85 | 11.2 | – | – | – | –
COc1ccc2c(c1)C(CN1CCCC1)N(C(=O)C1CC(=O)c3ccc(Cl)cc31)CC2 (centres unmarked) [I-18, 7-methoxy-1-(pyrrolidine-1-methyl)-2-(6-chloro-2,3-dihydro-inden-3-keto-1-carbonyl)-1,2,3,4-tetrahydroisoquinoline] | 281.00 | – | 17.1 | 59.9 | 100 | melting point: 151 to 153 °C; inhibition at 1 µM [4, 6]: 14%
COc1ccc2c(c1)C(CN1CCCC1)N(C(=O)C1CC(=O)c3ccccc31)CC2 (centres unmarked) [I-14, 7-methoxy-1-(pyrrolidine-1-methyl)-2-(2,3-dihydro-inden-3-keto-1-carbonyl)-1,2,3,4-tetrahydroisoquinoline] | 972.69 | – | 270 | 912 | 77.3 | inhibition at 1 µM [4, 6]: 14.6%
COc1cc2c(cc1OC)C(CN1CCCC1)N(C(=O)C1CC(=O)c3ccccc31)CC2 (centres unmarked) [I-26, 6,7-dimethoxy-1-(pyrrolidine-1-methyl)-2-(2,3-dihydro-inden-3-keto-1-carbonyl)-1,2,3,4-tetrahydroisoquinoline] | 1883.77 | 51.9 | – | – | – | –
COc1cc2c(cc1OC)C(C(=O)N1CCc3ccccc3C1CN1CCCC1)CC2=O (centres unmarked) [I-5, 1-(pyrrolidine-1-methyl)-2-(5,6-dimethoxy-2,3-dihydro-inden-3-keto-1-carbonyl)-1,2,3,4-tetrahydroisoquinoline] | 260.58 | – | 1.34 | 4.69 | 99.5 | Ki [4]: 106 nM; IC50 [4]: 318 nM; receptor selectivity μKi/κKi [4]: 79
COc1ccc2c(c1)C(CN1CCCC1)N(C(=O)C1CC(=O)c3cc(OC)c(OC)cc31)CC2 (centres unmarked) [I-15, 7-methoxy-1-(pyrrolidine-1-methyl)-2-(5,6-dimethoxy-2,3-dihydro-inden-3-keto-1-carbonyl)-1,2,3,4-tetrahydroisoquinoline] | 820.16 | 82.3 | – | – | – | inhibition rate of medicine at 1 × 10^−6 M (μ) [4, 6]: 11.7% (^−6)^a
